The record followed here is ChEMBL document CHEMBL2163202, “Enhanced Ca2+ entry, ceramide formation, and apoptotic death of erythrocytes triggered by plumbagin” (J Nat Prod, 2012).

In assay [1] the test system is Erythrocyte. Kind of assay: Induction of eryptosis in human erythrocytes assessed as phosphatidylserine exposure at 1 uM after 48 hrs by annexin V staining-based FACS analysis. The assay is classed as functional, cell-based. A general note: In flow cytometry, cells or beads pass a laser one at a time.
The test system of assay [2] is Erythrocyte. Kind of assay: Stimulation of ceramide formation in human erythrocytes at 2 uM after 48 hrs by FITC-labeled anticeramide antibody method. The assay is classed as functional, cell-based.
For assay [3], the system named is Erythrocyte. Kind of assay: Induction of eryptosis in human erythrocytes assessed as increase in cytosolic Ca2+ up to 2 uM after 48 hrs by Fluo-3/AM-based FACS analysis. The assay is classed as functional, cell-based.
Assay [4] has as its system Erythrocyte. Kind of assay: Induction of eryptosis in human erythrocytes assessed as phosphatidylserine exposure up to 2 uM after 48 hrs by annexin V staining-based FACS analysis. The format is functional, cell-based.
Assay [5] concerns Erythrocyte. Kind of assay: Induction of eryptosis in human erythrocytes assessed as reduction in cell volume measuring forward scatter at 1.5 uM after 48 hrs by FACS analysis. The assay is classed as functional, cell-based.
The subject of assay [6] is Erythrocyte. Kind of assay: Hemolysis in human erythrocytes assessed as release of hemoglobin up to 2 uM after 48 hrs by spectrophotometry. The format is functional, cell-based.
The test system of assay [7] is Erythrocyte. Kind of assay: Induction of eryptosis in human erythrocytes assessed as increase in cytosolic Ca2+ at 0.5 uM after 48 hrs by Fluo-3/AM-based FACS analysis. The assay is classed as functional, cell-based.
In assay [8] the test system is Erythrocyte. Kind of assay: Induction of eryptosis in human erythrocytes assessed as cell membrane scrambling at 1 uM after 48 hrs by annexin V staining-based FACS analysis in nominal absence of extracellular Ca2+. The format is functional.
Assay [9] relates to Erythrocyte. Kind of assay: Induction of eryptosis in human erythrocytes assessed as reduction in cell volume measuring forward scatter up to 2 uM after 48 hrs by FACS analysis. The assay is classed as functional, cell-based.
Assay [10] concerns Erythrocyte. Kind of assay: Hemolysis in human erythrocytes assessed as release of hemoglobin at 1 uM after 48 hrs by spectrophotometry. The assay is classed as functional, cell-based.
Assay [11] relates to Erythrocyte. Kind of assay: Induction of eryptosis in human erythrocytes assessed as cell membrane scrambling at 1 uM after 48 hrs by annexin V staining-based FACS analysis in presence of extracellular Ca2+. The format is functional.

Active and inactive are the calls of the source. No cut-off for these calls is given here.

Turning to `CC1=CC(=O)c2c(O)cccc2C1=O`, the outcome in assay [1], in [2], in [3], in [4], in assay [5] and in [6] was Active. Moreover, the outcome in [7], in [9], in [10] and in assay [11] was Active. Further, the outcome in [8] was inactive.
